{"source": "patent US4430331A", "about": "“Antiarrhytmic benzylimidazole” (Shionogi & Co., Ltd., priority 1981, dated 1984)", "key": {"atrium dextrum specimens": {"system": "atrium dextrum specimens", "assay": "Antiarrhythmic activity (cardiomuscular action to the maximal stimulus frequency)", "set-up": "species or system guinea-pigs", "conditions": "isolated guinea-pig atrium dextrum, Krebs-Ringer-sodium carbonate solution, 30° C., after 10 minutes treatment with test compound", "description": "(a) Antiarrhythmic activity (cardiomuscular action to the maximal stimulus frequency) A certain number of atrium dextrum specimens were made by extracting the heart from male and female guinea-pigs weighing on average 350 to 600 g, and then suspended and fixed in a glass vessel filled with Krebs-Ringer-sodium carbonate solution (30° C.) in which a mixture of 95% oxygen and 5% carbon dioxide was continuously introduced. The automatism of the specimens was recorded on the oscillograph. Maximal stimulus frequency was confirmed by affording a stimulus of the atrium dextrum from the exciting electrode equipped to a retainer. After previously treating with a test compound for 10 minutes, the reducing percent (%) of the maximal stimulus frequency was calculated by observing the reduction of the maximal frequency [[…].: Brit. […]., 1, 90 (1946)]."}, "SLC-DDY male mice": {"system": "SLC-DDY male mice", "assay": "in vivo", "assay_type": "in vivo", "conditions": "LD50, up and down method, into tail venae (intravenous), SLC-DDY male mice 25 to 35 g", "description": "(§1) Lethal dose was obtained by administering a test compound in the form of a physiological brine solution into the tail venae of SLC-DDY male mice weighing from 25 to 35 g and calculating the value of LD50 by the up and down method [Brownlee, K. A. et al.: J. Am. Stat. As., 48, 262 (1953)]."}, "in vivo": {"assay": "in vivo", "assay_type": "in vivo", "conditions": "mouse, in vivo; LD50, up and down method, into tail venae (intravenous), SLC-DDY male mice 25 to 35 g; read-out: Acute toxicity (LD50)", "description": "as §1"}}, "data": [{"smiles": "C=C(c1ccccc1OCC(O)CNC(C)C)n1cncn1", "note": "(stereo not shown) [Example 31]", "values": [{"measurement": "Reducing percent (%) of Maximal stimulus frequency", "setting": "atrium dextrum specimens", "value": 42.8, "unit": "%"}, {"measurement": "Acute toxicity (LD50)", "setting": "SLC-DDY male mice", "value": 36.4, "unit": "mg/kg"}]}, {"smiles": "C=C(c1c(Cl)ccc(Cl)c1OCC(O)CNCC(C)C)n1ccnc1", "note": "(stereo not shown) [Example 13]", "values": [{"measurement": "Reducing percent (%) of Maximal stimulus frequency", "setting": "atrium dextrum specimens", "value": 34.5, "unit": "%"}, {"measurement": "Acute toxicity (LD50)", "setting": "SLC-DDY male mice", "value": 15.5, "unit": "mg/kg"}]}, {"smiles": "C=C(c1ccccc1OCC(O)CNC(C)C)n1cnc(C)c1", "note": "(stereo not shown) [Example 24]", "values": [{"measurement": "Reducing percent (%) of Maximal stimulus frequency", "setting": "atrium dextrum specimens", "value": 36.1, "unit": "%"}, {"measurement": "Acute toxicity (LD50)", "setting": "SLC-DDY male mice", "value": 36.4, "unit": "mg/kg"}]}, {"smiles": "C=C[C@H]1C[N@@]2CC[C@H]1C[C@@H]2[C@@H](O)c1ccnc2ccc(OC)cc12", "note": "[Quinidine, reference compound]", "values": [{"measurement": "Reducing percent (%) of Maximal stimulus frequency", "setting": "atrium dextrum specimens", "value": 22.8, "unit": "%"}]}, {"smiles": "C=C(c1ccccc1OCC(O)CNC(C)(C)C)n1cnc2ccccc21", "note": "(stereo not shown) [Example 22]", "values": [{"measurement": "Reducing percent (%) of Maximal stimulus frequency", "setting": "atrium dextrum specimens", "value": 35.8, "unit": "%"}, {"measurement": "Acute toxicity (LD50)", "setting": "SLC-DDY male mice", "value": 26.5, "unit": "mg/kg"}]}, {"smiles": "C=C(c1c(Cl)ccc(Cl)c1OCC(O)CNC(C)C)n1ccnc1", "note": "(stereo not shown) [Example 7]", "values": [{"measurement": "Reducing percent (%) of Maximal stimulus frequency", "setting": "atrium dextrum specimens", "value": 38.1, "unit": "%"}, {"measurement": "Acute toxicity (LD50)", "setting": "SLC-DDY male mice", "value": 19.8, "unit": "mg/kg"}]}, {"smiles": "C=C(c1c(C)ccc(Cl)c1OCC(O)CNC(C)C)n1ccnc1", "note": "(stereo not shown) [Example 30]", "values": [{"measurement": "Reducing percent (%) of Maximal stimulus frequency", "setting": "atrium dextrum specimens", "value": 50.6, "unit": "%"}, {"measurement": "Acute toxicity (LD50)", "setting": "SLC-DDY male mice", "value": 28.5, "unit": "mg/kg"}]}, {"smiles": "C=C(c1ccccc1OCC(O)CNC(C)(C)C)n1cccn1", "note": "(stereo not shown) [Example 25]", "values": [{"measurement": "Reducing percent (%) of Maximal stimulus frequency", "setting": "atrium dextrum specimens", "value": 39.2, "unit": "%"}, {"measurement": "Acute toxicity (LD50)", "setting": "SLC-DDY male mice", "value": 22.3, "unit": "mg/kg"}]}, {"smiles": "C=C(c1ccc(Cl)c(Cl)c1OCC(O)CNC(C)C)n1ccnc1", "note": "(stereo not shown) [Example 26]", "values": [{"measurement": "Reducing percent (%) of Maximal stimulus frequency", "setting": "atrium dextrum specimens", "value": 35.8, "unit": "%"}, {"measurement": "Acute toxicity (LD50)", "setting": "SLC-DDY male mice", "value": 33.9, "unit": "mg/kg"}]}, {"smiles": "C=C(c1ccccc1OCC(O)CNC(C)C)n1cnc(C(=O)OCC)c1C", "note": "(stereo not shown) [Example 17]", "values": [{"measurement": "Reducing percent (%) of Maximal stimulus frequency", "setting": "atrium dextrum specimens", "value": 31.7, "unit": "%"}, {"measurement": "LD50", "setting": "in vivo", "value": 36.4, "unit": "mg/kg"}]}]}
